This assay deals with T1, ΔF508-CFTR (Homo sapiens, UniProt P13569, DEL508-508).
T1 construct: expressed in transfected cells
The assay is described as follows: Membrane potential optical (FRET/VIPR) assay, identification of potentiator compounds. The assay is classed as cell-based. The conditions noted are these: Table 3, assay not given; for % Activity: relative efficacy. In short, it runs like this: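 Double-addition potentiator screen: compound delivered in gluconate-substituted Cl^--free medium, membrane potential followed via CC2-DMPE/DiSBAC2(3) FRET on VIPR. Cells were ΔF508-CFTR-expressing NIH3T3 mouse fibroblasts, held 2 h at 37° C. then 24 h at 27° C. before assay.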

One may read the EC50 as the concentration that produces a half-maximal response.

T1 sequence (P13569 with tags, fused parts or gaps DEL508-508): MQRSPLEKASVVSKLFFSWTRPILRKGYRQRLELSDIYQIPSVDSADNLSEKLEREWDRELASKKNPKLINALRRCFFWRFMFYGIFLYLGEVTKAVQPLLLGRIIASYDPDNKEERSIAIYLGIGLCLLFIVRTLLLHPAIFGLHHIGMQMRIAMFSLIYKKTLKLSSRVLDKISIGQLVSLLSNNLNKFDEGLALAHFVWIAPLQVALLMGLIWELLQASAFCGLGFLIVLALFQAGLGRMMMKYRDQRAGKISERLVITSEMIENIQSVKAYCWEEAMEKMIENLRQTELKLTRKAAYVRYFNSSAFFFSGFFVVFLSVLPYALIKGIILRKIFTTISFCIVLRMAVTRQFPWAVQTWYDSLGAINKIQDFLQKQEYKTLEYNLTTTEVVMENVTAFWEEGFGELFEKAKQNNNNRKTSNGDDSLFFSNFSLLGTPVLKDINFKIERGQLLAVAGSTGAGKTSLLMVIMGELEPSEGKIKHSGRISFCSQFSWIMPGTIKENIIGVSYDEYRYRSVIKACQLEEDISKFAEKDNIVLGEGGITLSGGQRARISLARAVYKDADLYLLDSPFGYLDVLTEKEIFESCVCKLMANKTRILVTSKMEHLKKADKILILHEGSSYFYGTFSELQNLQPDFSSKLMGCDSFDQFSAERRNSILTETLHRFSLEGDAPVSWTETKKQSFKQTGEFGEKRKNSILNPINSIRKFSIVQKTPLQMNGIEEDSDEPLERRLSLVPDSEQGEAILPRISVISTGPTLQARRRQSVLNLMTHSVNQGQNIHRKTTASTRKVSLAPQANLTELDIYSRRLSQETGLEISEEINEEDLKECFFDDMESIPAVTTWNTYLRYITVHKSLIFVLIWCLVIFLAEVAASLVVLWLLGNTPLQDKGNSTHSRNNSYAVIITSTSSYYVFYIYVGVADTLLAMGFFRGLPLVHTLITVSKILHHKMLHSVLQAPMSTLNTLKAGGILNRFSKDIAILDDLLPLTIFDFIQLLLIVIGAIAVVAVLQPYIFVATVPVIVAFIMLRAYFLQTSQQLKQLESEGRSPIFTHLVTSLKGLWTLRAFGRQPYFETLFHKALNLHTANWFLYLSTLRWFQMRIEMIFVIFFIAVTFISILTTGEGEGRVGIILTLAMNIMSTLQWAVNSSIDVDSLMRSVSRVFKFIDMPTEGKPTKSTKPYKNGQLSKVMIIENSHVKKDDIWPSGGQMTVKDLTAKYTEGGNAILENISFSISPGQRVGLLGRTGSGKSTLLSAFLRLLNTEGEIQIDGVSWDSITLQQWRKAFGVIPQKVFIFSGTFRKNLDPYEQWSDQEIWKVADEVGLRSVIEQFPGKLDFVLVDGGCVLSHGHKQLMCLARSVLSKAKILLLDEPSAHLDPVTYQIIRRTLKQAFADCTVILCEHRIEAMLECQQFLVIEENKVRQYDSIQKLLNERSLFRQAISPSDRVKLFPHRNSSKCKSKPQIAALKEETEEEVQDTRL

Turning to `CN(C)CCS(=O)(=O)Nc1cc(NC(=O)c2c[nH]c3ccccc3c2=O)cc(C(F)(F)F)c1` [Compound 359, N-[3-(2-dimethylaminoethylsulfonylamino)-5-(trifluoromethyl)phenyl]-4-oxo-1H-quinoline-3-carboxamide], the 50% effective concentration (EC50) was 10 to 25 µM and the “% Activity” value is listed as “++ (between 25% to 100%)”.
Regarding `O=C(Nc1ccc(OC(F)F)cc1)c1c[nH]c2ccccc2c1=O` [Compound 360, N-[4-(difluoromethoxy)phenyl]-4-oxo-1H-quinoline-3-carboxamide], the half-maximal effective concentration (EC50) is less than 10 µM and the “% Activity” value is reported as “++ (between 25% to 100%)”.
Regarding `COc1ccc(OC)c(-c2ccccc2NC(=O)c2c[nH]c3ccccc3c2=O)c1` [Compound 361, N-[2-(2,5-dimethoxyphenyl)phenyl]-4-oxo-1H-quinoline-3-carboxamide], the “% Activity” value was “+++ (>100%)”.
Take `CC(C)(C)c1ccc(NC(=O)c2c[nH]c3ccccc3c2=O)c(Cl)c1` [Compound 362, N-(2-chloro-4-tert-butyl-phenyl)-4-oxo-1H-quinoline-3-carboxamide]: the 50% effective concentration (EC50) was less than 10 µM and the “% Activity” value is on record as “++ (between 25% to 100%)”.
Take `COc1cccc(-c2ccccc2NC(=O)c2c[nH]c3ccccc3c2=O)c1F` [Compound 363, N-[2-(2-fluoro-3-methoxy-phenyl)phenyl]-4-oxo-1H-quinoline-3-carboxamide]: the concentration for a half-maximal effect (EC50) is less than 10 µM and the “% Activity” value is given as “+++ (>100%)”.
For `Cc1ccc2cccc(NC(=O)c3c[nH]c4ccccc4c3=O)c2n1` [Compound 364, N-(2-methyl-8-quinolyl)-4-oxo-1H-quinoline-3-carboxamide] the same measures were less than 10 µM and “++ (between 25% to 100%)”.
For `CC(=O)c1ccccc1NC(=O)c1c[nH]c2ccccc2c1=O` [Compound 365, N-(2-acetylphenyl)-4-oxo-1H-quinoline-3-carboxamide] the same measures were 10 to 25 µM and “++ (between 25% to 100%)”.
As to `O=C(Nc1ccccc1-c1ccc(C(F)(F)F)cc1)c1c[nH]c2ccccc2c1=O` [Compound 366, 4-oxo-N-[2-[4-(trifluoromethyl)phenyl]phenyl]-1H-quinoline-3-carboxamide], the EC50 was less than 10 µM and the “% Activity” value is reported as “++ (between 25% to 100%)”.
For `O=C(Nc1ccccc1-c1cc(Cl)cc(Cl)c1)c1c[nH]c2ccccc2c1=O` [Compound 367, N-[2-(3,5-dichlorophenyl)phenyl]-4-oxo-1H-quinoline-3-carboxamide], the concentration for a half-maximal effect (EC50) was less than 10 µM and the “% Activity” value was “++ (between 25% to 100%)”.
For `CCCOc1ccc(NC(=O)c2c[nH]c3ccccc3c2=O)cc1N` [Compound 368, N-(3-amino-4-propoxy-phenyl)-4-oxo-1H-quinoline-3-carboxamide] the same measures were less than 10 µM and “++ (between 25% to 100%)”.
Regarding `N#Cc1cc(Cl)cc(Cl)c1NC(=O)c1c[nH]c2ccccc2c1=O` [Compound 369, N-(2,4-dichloro-6-cyano-phenyl)-4-oxo-1H-quinoline-3-carboxamide], the EC50 lay within 10 to 25 µM and the “% Activity” value is recorded as “+ (<25%)”.
With `O=C(Nc1cccc(Cl)c1)c1c[nH]c2ccccc2c1=O` [Compound 370, N-(3-chlorophenyl)-4-oxo-1H-quinoline-3-carboxamide], the EC50 was less than 10 µM and the “% Activity” value is “++ (between 25% to 100%)”.
For `O=C(Nc1ccccc1SC(F)(F)F)c1c[nH]c2ccccc2c1=O` [Compound 371, 4-oxo-N-[2-(trifluoromethylsulfanyl)phenyl]-1H-quinoline-3-carboxamide] the same measures were less than 10 µM and “++ (between 25% to 100%)”.
For `CC1CCN(c2ccccc2NC(=O)c2c[nH]c3ccccc3c2=O)CC1` [Compound 372, N-[2-(4-methyl-1-piperidyl)phenyl]-4-oxo-1H-quinoline-3-carboxamide] the same measures were less than 10 µM and “++ (between 25% to 100%)”.
As to `O=C(Nc1cccc2c1CCC2)c1c[nH]c2ccccc2c1=O` [Compound 373, N-indan-4-yl-4-oxo-1H-quinoline-3-carboxamide], the EC50 is less than 10 µM and the “% Activity” value is reported as “++ (between 25% to 100%)”.
For the compound `CSc1nc2ccccc2c(O)c1C(=O)Nc1ccc2cc[nH]c2c1` [Compound 374, 4-hydroxy-N-(1H-indol-6-yl)-2-methylsulfanyl-quinoline-3-carboxamide], the half-maximal effective concentration (EC50) fell in the range of 25 to 60 µM and the “% Activity” value was “+ (<25%)”.
For `O=C(Nc1ccc2c(c1)CCCC2)c1c[nH]c2ccccc2c1=O` [Compound 375, 1,4-dihydro-N-(1,2,3,4-tetrahydronaphthalen-6-yl)-4-oxoquinoline-3-carboxamide] the same measures were less than 10 µM and “++ (between 25% to 100%)”.
For `O=C(Nc1ccc2oc(-c3ccccc3)nc2c1)c1c[nH]c2ccccc2c1=O` [Compound 376, 4-oxo-N-(2-phenylbenzooxazol-5-yl)-1H-quinoline-3-carboxamide] the same measures were 25 to 60 µM and “+ (<25%)”.
On to `O=C(Nc1ccc2cc[nH]c2c1)c1cnc2c(F)cc(F)cc2c1O` [Compound 377, 6,8-difluoro-4-hydroxy-N-(1H-indol-6-yl)quinoline-3-carboxamide], for which the EC50 lay within 10 to 25 µM and the “% Activity” value is listed as “++ (between 25% to 100%)”.
For the compound `COc1ccc(NC(=O)c2c[nH]c3ccccc3c2=O)cc1N` [Compound 378, N-(3-amino-4-methoxy-phenyl)-4-oxo-1H-quinoline-3-carboxamide], the concentration giving a half-maximal response (EC50) was in the range of 10 to 25 µM and the “% Activity” value was “++ (between 25% to 100%)”.
Turning to `CC(=O)Nc1cc(NC(=O)c2c[nH]c3ccccc3c2=O)cc(C(F)(F)F)c1` [Compound 379, N-[3-acetylamino-5-(trifluoromethyl)phenyl]-4-oxo-1H-quinoline-3-carboxamide], the concentration for a half-maximal effect (EC50) was 10 to 25 µM and the “% Activity” value was “++ (between 25% to 100%)”.
For `CCOc1ccccc1NC(=O)c1c[nH]c2ccccc2c1=O` [Compound 380, N-(2-ethoxyphenyl)-4-oxo-1H-quinoline-3-carboxamide], the EC50 was less than 10 µM and the “% Activity” value is recorded as “++ (between 25% to 100%)”.
For `CC(C)(C)c1cc2cc[nH]c2cc1NC(=O)c1c[nH]c2ccccc2c1=O` [Compound 381, 4-oxo-N-(5-tert-butyl-1H-indol-6-yl)-1H-quinoline-3-carboxamide] the same measures were less than 10 µM and “++ (between 25% to 100%)”.
Turning to `CCCc1ccc(NC(=O)c2c[nH]c3ccccc3c2=O)cc1NC(=O)OCC` [Compound 382, [5-[(4-oxo-1H-quinolin-3-yl)carbonylamino]-2-propyl-phenyl]aminoformic acid ethyl ester], the 50% effective concentration (EC50) is less than 10 µM and the “% Activity” value is on record as “++ (between 25% to 100%)”.
On to `CCc1c[nH]c2cc(NC(=O)c3c[nH]c4ccccc4c3=O)ccc12` [Compound 383, N-(3-ethyl-1H-indol-6-yl)-4-oxo-1H-quinoline-3-carboxamide], for which the EC50 is less than 10 µM and the “% Activity” value is recorded as “++ (between 25% to 100%)”.
As for `O=C(Nc1ccccc1-c1cc(F)ccc1F)c1c[nH]c2ccccc2c1=O` [Compound 384, N-[2-(2,5-difluorophenyl)phenyl]-4-oxo-1H-quinoline-3-carboxamide], the 50% effective concentration (EC50) was less than 10 µM and the “% Activity” value is on record as “++ (between 25% to 100%)”.
On to `O=C(Nc1cccnc1Oc1ccc(F)cc1F)c1c[nH]c2ccccc2c1=O` [Compound 385, N-[2-(2,4-difluorophenoxy)-3-pyridyl]-4-oxo-1H-quinoline-3-carboxamide], for which the “% Activity” value is “++ (between 25% to 100%)”.
Take `CC1(C)CNc2cc(NC(=O)c3c[nH]c4ccccc4c3=O)ccc21` [Compound 386, N-(3,3-dimethylindolin-6-yl)-4-oxo-1H-quinoline-3-carboxamide]: the EC50 is less than 10 µM and the “% Activity” value is reported as “++ (between 25% to 100%)”.
For `Cc1c(NC(=O)c2c[nH]c3ccccc3c2=O)cccc1C(F)(F)F` [Compound 387, N-[2-methyl-3-(trifluoromethyl)phenyl]-4-oxo-1H-quinoline-3-carboxamide] the same measures were less than 10 µM and “++ (between 25% to 100%)”.
For `O=C(Nc1ccccc1-c1ccc(OC(F)(F)F)cc1)c1c[nH]c2ccccc2c1=O` [Compound 388, 4-oxo-N-[2-[4-(trifluoromethoxy)phenyl]phenyl]-1H-quinoline-3-carboxamide] the same measures were less than 10 µM and “++ (between 25% to 100%)”.
For the compound `O=C(Nc1cccc(Cc2ccccc2)c1)c1c[nH]c2ccccc2c1=O` [Compound 389, N-(3-benzylphenyl)-4-oxo-1H-quinoline-3-carboxamide], the EC50 was less than 10 µM and the “% Activity” value is listed as “++ (between 25% to 100%)”.
For `CC(C)(C)c1ccc(NC(=O)c2c[nH]c3ccccc3c2=O)cc1CN` [Compound 390, N-[3-(Aminomethyl)-4-tert-butyl-phenyl]-4-oxo-1H-quinoline-3-carboxamide] the same measures were 25 to 60 µM and “+ (<25%)”.
On to `CC(C)Cc1ccc(-c2ccccc2NC(=O)c2c[nH]c3ccccc3c2=O)cc1` [Compound 391, N-[2-(4-isobutylphenyl)phenyl]-4-oxo-1H-quinoline-3-carboxamide], for which the concentration for a half-maximal effect (EC50) was less than 10 µM and the “% Activity” value is “++ (between 25% to 100%)”.
For `O=C(Nc1ccc(Cl)nc1)c1c[nH]c2ccccc2c1=O` [Compound 392, N-(6-chloro-3-pyridyl)-4-oxo-1H-quinoline-3-carboxamide] the same measures were 25 to 60 µM and “+ (<25%)”.
For `CCOc1ccccc1-c1ccc(N)cc1NC(=O)c1c[nH]c2ccccc2c1=O` [Compound 393, N-[5-amino-2-(2-ethoxyphenyl)-phenyl]-4-oxo-1H-quinoline-3-carboxamide] the same measures were less than 10 µM and “++ (between 25% to 100%)”.

The record behind these values is patent publication US8614327B2 (Vertex Pharmaceuticals Incorporated, priority 2004, dated 2013).
